Key:
human BChE (hBChE) = biological target: T1, human BChE (hBChE) (Homo sapiens, UniProt P06276); assay: hBChE inhibition, modified Ellman's method; format: biochemical; conditions: 10^-6 M
T1 construct: made in house
Experimental: N-Methylpropargylamine-quinazolines were tested for their inhibitory potency against human AChE (hAChE) and human BChE (hBChE) enzymes using the modified spectrophotometric method of Ellman et al..
The human recombinant BChE and AChE were prepared at the Department of Toxicology and Military Pharmacy (Faculty of Military Health Sciences, Hradec Kralove, Czech Republic). 5,5′-dithiobis(2-nitrobenzoic acid) (Ellman’s reagent, DTNB), phosphate buffer (PB, pH 7.4), acetylthiocholine (ATC) and butyrylthiocholine (BTC), were purchased from Sigma-Aldrich, Prague, Czech Republic. For measuring purposes, polystyrene Nunc 96-well microplates with a flat-bottom shape (ThermoFisher Scientific, Waltham, MA, USA) were utilized. All the assays were carried out in 0.1 M KH2PO4/K2HPO4 buffer, pH 7.4. Enzyme solutions were prepared at 2.0 units/mL in 2 mL aliquots. The assay medium consisted of a 0.1 M phosphate buffer (pH 7.4), 0.01 M DTNB, the enzyme, and 0.01 M substrate (ATC/BTC iodide solution). Concentration 1 µM was tested and the % of inhibition was calculated. Tested compounds were pre-incubated for 5 min. The reaction was started by immediate addition of 20 μL of the substrate. […] Each concentration was assayed in triplicate. Software GraphPad Prism 5 (San Diego, CA, USA) was used for the statistical data evaluation.

hMAO-A = biological target: T2, hMAO-A (Homo sapiens, UniProt P21397); assay: in vitro inhibition of hMAO-A, kynuramine fluorescence assay; format: biochemical
T2 construct: purchased Merck (Prague, Czech Republic)
T2 sequence (P21397 1-527): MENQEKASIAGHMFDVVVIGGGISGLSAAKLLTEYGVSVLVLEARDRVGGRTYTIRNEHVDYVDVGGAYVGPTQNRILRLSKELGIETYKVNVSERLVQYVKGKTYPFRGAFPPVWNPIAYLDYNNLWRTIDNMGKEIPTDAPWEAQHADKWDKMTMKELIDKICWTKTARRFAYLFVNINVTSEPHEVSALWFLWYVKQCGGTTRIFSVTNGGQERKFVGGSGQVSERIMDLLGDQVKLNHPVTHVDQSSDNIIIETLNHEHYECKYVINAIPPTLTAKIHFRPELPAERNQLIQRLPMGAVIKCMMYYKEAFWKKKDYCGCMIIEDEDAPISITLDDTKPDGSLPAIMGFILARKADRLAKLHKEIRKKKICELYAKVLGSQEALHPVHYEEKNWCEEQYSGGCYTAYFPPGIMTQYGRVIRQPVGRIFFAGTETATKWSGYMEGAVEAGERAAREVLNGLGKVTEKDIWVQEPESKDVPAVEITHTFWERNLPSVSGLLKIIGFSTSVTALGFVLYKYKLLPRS
Experimental: The hMAO-A and hMAO-B enzymes were purchased from Merck (Prague, Czech Republic). […] The mixture was pre-incubated at 37 °C for 15 min and subsequently substrate kynuramine was added to the final concentration of 100 µM. The final volume of reaction mixture was 0.1 mL. The whole reaction mixture was incubated at 37 °C for 30 min. The reaction was stopped by the addition of 20 µL 4M NaOH.

GluN1/GluN2B receptor = biological target: T3, GluN1/GluN2B receptor (Homo sapiens, UniProt Q05586+Q13224); assay: whole-cell patch-clamp on HEK293 cells expressing GluN1/GluN2B NMDAR; format: cell-based; conditions: HEK293, 10 µM, −60 mV, ± SEM (n = 5–6), 100% = full inhibition; read-out: Relative inhibition (RI) of GluN1/GluN2B NMDAR
T3 construct: expressed in transfected cells; host or cells: HEK293
T3 sequence (Q13224 27-1484, other chains not shown): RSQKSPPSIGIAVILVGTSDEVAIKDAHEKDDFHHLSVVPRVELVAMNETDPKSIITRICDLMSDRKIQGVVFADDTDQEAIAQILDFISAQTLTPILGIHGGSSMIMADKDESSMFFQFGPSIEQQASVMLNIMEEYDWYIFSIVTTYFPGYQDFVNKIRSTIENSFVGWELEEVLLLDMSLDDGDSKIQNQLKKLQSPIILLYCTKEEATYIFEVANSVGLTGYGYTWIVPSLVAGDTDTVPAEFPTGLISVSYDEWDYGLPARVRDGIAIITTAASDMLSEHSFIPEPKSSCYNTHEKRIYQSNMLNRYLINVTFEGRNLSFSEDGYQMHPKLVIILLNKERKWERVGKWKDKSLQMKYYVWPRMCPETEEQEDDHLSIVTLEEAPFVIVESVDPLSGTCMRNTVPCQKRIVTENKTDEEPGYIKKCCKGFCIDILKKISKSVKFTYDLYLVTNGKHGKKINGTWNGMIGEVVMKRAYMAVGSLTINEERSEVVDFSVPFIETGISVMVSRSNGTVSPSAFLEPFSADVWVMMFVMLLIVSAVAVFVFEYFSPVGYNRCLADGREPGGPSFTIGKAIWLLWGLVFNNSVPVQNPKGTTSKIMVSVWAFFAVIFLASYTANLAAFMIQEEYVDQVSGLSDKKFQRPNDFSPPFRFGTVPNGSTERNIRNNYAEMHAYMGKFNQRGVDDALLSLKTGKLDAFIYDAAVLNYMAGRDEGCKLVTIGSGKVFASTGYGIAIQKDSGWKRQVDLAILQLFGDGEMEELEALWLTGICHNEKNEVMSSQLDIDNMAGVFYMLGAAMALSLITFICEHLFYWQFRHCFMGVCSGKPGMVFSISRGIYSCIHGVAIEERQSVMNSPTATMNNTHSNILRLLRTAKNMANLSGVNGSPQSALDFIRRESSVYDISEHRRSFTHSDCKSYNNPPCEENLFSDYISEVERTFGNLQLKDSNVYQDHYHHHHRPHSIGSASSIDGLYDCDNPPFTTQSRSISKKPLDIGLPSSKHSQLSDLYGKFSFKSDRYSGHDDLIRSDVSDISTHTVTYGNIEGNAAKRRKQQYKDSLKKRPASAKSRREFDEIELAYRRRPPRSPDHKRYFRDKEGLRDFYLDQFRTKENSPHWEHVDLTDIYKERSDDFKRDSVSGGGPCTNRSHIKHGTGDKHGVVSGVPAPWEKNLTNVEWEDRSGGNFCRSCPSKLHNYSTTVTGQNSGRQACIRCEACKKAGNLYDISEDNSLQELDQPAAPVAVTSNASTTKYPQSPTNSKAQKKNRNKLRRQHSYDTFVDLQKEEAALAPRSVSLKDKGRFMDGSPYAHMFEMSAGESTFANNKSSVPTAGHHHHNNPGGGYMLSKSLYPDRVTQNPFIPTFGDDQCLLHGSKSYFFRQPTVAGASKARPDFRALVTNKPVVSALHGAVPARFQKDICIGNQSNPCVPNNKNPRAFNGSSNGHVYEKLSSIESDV
Experimental: We tested the derivatives by the whole-cell patch-clamp method at a concentration of 10 μM under steady-state conditions in the presence of the saturating concentrations of NMDAR (co-)agonists (L-glutamate and glycine). […] Whole-cell patch-clamp recordings were performed using an Axopatch 200B amplifier (Molecular Devices, LLC., San Jose, CA, USA) at a holding membrane potential of −60 mV. HEK293 cells were co-transfected with DNA vectors encoding human versions of the GluN1-4a (GluN1) and GluN2B subunits and green fluorescent protein (GFP) in a 1:1:1 ratio using 0.9 μL PolyMag reagent (OZ Biosciences SAS, Marseille, France) in 50 μL Opti-MEM I [56, 57]. After 15 min on a magnetic plate, HEK293 cells were trypsinized and resuspended in Opti-MEM I medium containing 1% FBS, 2 mM MgCl2 and 3 mM kynurenic acid (to reduce cell death caused by activation of NMDARs). Electrophysiological measurements were performed 24–48 h after completion of transfection at room temperature. The extracellular recording solution (ECS) contained (in mM): 160 NaCl, 2.5 KCl, 10 HEPES, 10 D-glucose, 0.2 EDTA, and 0.7 CaCl2 (pH 7.3 with NaOH). […] A microprocessor-controlled rapid perfusion system with a time constant for solution exchange around the recorded cell of ~20 ms was used. Currents were low-pass filtered at 2 kHz using an eight-pole Bessel filter, digitized at 5 kHz, and recorded using the pCLAMP 10 program (Molecular Devices, LLC., San Jose, CA, USA). The co-agonist glycine (100 µM) was applied throughout the recording, and the agonist L-glutamate (1 mM) was used to elicit responses of GluN1/GluN2B receptors.

SH-SY5Y cells = assay: dehydrogenase activity, WST-1 test; format: cell-based, human; conditions: for Dehydrogenase Activity (% of Control): 100 µM, mean ± SD; for change in dehydrogenase activity (in words): 10 µM
Experimental: Next, we tested the effects of the compounds on intracellular dehydrogenase activity and glutathione levels. […] To evaluate the effects of the compounds on cells, we measured total intracellular dehydrogenase activity as a marker of cellular viability and glutathione levels for evaluation of oxidative stress (Table 6).
Dehydrogenase activity was evaluated by WST-1 test (Roche, Munich, Germany). The WST-1 test measures the activity of intra- and extra-mitochondrial dehydrogenases. […] The change of absorbance was measured by spectrophotometer at the wavelength of 440 nm using SPARK microplate reader (Tecan, Austria) while incubated at 37 °C. The dehydrogenase activity was expressed as the percentage of total cellular dehydrogenase activity relative to that in the control cells (control = 100%).

T1 sequence (P06276 29-602): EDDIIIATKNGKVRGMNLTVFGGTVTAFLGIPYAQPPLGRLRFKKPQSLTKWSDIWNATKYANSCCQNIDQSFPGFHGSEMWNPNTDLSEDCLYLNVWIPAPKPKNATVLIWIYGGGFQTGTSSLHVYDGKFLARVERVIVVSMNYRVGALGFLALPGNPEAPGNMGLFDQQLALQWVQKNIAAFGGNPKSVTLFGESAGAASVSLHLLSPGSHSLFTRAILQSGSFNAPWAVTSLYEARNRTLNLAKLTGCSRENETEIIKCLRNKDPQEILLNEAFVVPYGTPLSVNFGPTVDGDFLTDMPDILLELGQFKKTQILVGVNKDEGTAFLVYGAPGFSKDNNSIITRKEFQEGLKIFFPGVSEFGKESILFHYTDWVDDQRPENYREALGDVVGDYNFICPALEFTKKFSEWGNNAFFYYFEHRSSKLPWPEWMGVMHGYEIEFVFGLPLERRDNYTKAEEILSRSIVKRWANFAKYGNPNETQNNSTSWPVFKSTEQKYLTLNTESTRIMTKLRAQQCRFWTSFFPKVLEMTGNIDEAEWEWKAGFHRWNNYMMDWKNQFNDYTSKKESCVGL

Which results are given for `C#CCN(C)c1nc(NC2CCCCC2)c2ccccc2n1` [I-6h, N4-cyclohexyl-N2-methyl-N2-(prop-2-yn-1-yl)quinazoline-2,4-diamine]?
inhibition at 1 µM (human BChE (hBChE)): 0%; IC50 (hMAO-A): 900 ± 170 nM; inhibition at 10 µM (GluN1/GluN2B receptor): 49.3 ± 1.16%; Dehydrogenase Activity (% of Control) (SH-SY5Y cells; 6 h): 62 ± 10 % of Control; Dehydrogenase Activity (% of Control) (SH-SY5Y cells; 24 h): 49 ± 2 % of Control

How did the inhibition at 1 µM (human BChE (hBChE)) turn out when `C#CCN(C)c1nc(NCCCC)c2ccccc2n1` [I-6e, N4-butyl-N2-methyl-N2-(prop-2-yn-1-yl)quinazoline-2,4-diamine] was run?
The inhibition at 1 µM was 4%.

And the IC50 (hMAO-A)?
The IC50 was 2600 ± 230 nM.

What about the inhibition at 10 µM (GluN1/GluN2B receptor) of the same molecule?
Its inhibition at 10 µM is 30.1 ± 3.13%.

What about the “Dehydrogenase Activity (% of Control)” value (SH-SY5Y cells; 6 h) of the same molecule?
The value was 44 ± 13 % of Control.

What about the “Dehydrogenase Activity (% of Control)” value (SH-SY5Y cells; 24 h) of the same molecule?
Its value is 49 ± 4 % of Control.

With `C#CCN(C)c1nc(N)c2cc(OC)ccc2n1` [III-6a, 6-methoxy-N2-methyl-N2-(prop-2-yn-1-yl)quinazoline-2,4-diamine] as the molecule, how does the inhibition at 1 µM (human BChE (hBChE)) read?
Its inhibition at 1 µM is 1%.

And the IC50 (hMAO-A)?
Its IC50 is 620 ± 40 nM.

What about the inhibition at 10 µM (GluN1/GluN2B receptor) of the same molecule?
Its inhibition at 10 µM is 18.1 ± 5.75%.

And the “change in dehydrogenase activity (in words)” value (SH-SY5Y cells; 24 h)?
The value was “no significant changes”.

What about the “Dehydrogenase Activity (% of Control)” value (SH-SY5Y cells; 6 h) of the same molecule?
The value was 107 ± 8 % of Control.

What about the “Dehydrogenase Activity (% of Control)” value (SH-SY5Y cells; 24 h) of the same molecule?
The value was 128 ± 4 % of Control.

How did the inhibition at 1 µM (human BChE (hBChE)) turn out when `C#CCN(C)c1nc(NC2CCCCC2)c2ccc(Cl)cc2n1` [II-6h, 7-chloro-N4-cyclohexyl-N2-methyl-N2-(prop-2-yn-1-yl)quinazoline-2,4-diamine] was run?
Its inhibition at 1 µM is 3%.

And the inhibition at 10 µM (GluN1/GluN2B receptor)?
The inhibition at 10 µM was 63.5 ± 3.46%.

And the “change in dehydrogenase activity (in words)” value (SH-SY5Y cells; 24 h)?
The value was “no significant changes”.

What about the “Dehydrogenase Activity (% of Control)” value (SH-SY5Y cells; 6 h) of the same molecule?
The value was 40 ± 3 % of Control.

What about the “Dehydrogenase Activity (% of Control)” value (SH-SY5Y cells; 24 h) of the same molecule?
The value was 22 ± 7 % of Control.

Reference: publication PMC10252614 (International Journal of Molecular Sciences, 2023)
